According to PMC12383145, “Fluorescent Peptides Internalize HeLa Cells and Kill Multidrug-Resistant Clinical Bacterial Isolates” (Antibiotics, 2025):
Where “and” joins values, the source holds several entries; their conditions need not be identical. Equal values may be shown once. Residues, ends and D or L forms follow the SMILES beside them. *: point of attachment. RhodamineB = CCN(CC)c1ccc2c(-c3ccccc3C(=O)*)c3ccc(=[N+](CC)CC)cc-3oc2c1

What was measured:
Type in all cases: cell-based
[1] = tested on: S. aureus clinical isolate 11719; details: clinical isolate 11719, 24 h
[2] = tested on: E. faecalis clinical isolate 213; details: clinical isolate 213, 24 h
[3] = tested on: S. aureus clinical isolate 109095; details: clinical isolate 109095, 24 h
[4] = MTT cytotoxicity assay in HeLa cells
MCF-7 cells = experiment: MTT cytotoxicity assay in MCF-7 cells; details: 200 µg/mL, 2 h
Protocol: An MTT assay was performed in MCF-7 cells with FAM-1 (FAM-RWQWRWQWR) and RhB-1 (RhB-RWQWRWQWR) peptides following a 2 h treatment.

Hemolysis assay = experiment: Hemolysis assay
Protocol: (§1) Whole blood was collected into EDTA tubes and centrifuged at 2500 rpm for 10 min. The plasma and buffy coat were removed, and the erythrocytes were washed three times with 0.9% saline to yield a 4% cell suspension. In 96-well plates, 100 µL of peptide dilutions (6.25–200 µg/mL) were prepared in triplicate, and 100 µL of the erythrocyte suspension was added (final hematocrit 2%). Plates were incubated at 37 °C for 2 h, and then centrifuged again at 2500 rpm for 10 min. A 100 µL aliquot of the supernatant was transferred to a fresh plate, and absorbance was measured at 450 nm. Saline and 1× Triton X-100 served as the negative and positive controls, respectively. Hemolysis (%) was calculated as follows: %hemolysis=treatment absorbance−saline absorbance/1×triton absorbance−saline absorbance

erythrocytes = experiment: Hemolysis assay; details: 2 h
Protocol: as §1

HeLa cells = experiment: Micrographs of cell morphology after peptide treatment; details: 100 µg/mL, 2 h, 37 °C
Source text: Despite these pronounced morphological alterations, there was no evidence of cell rupture, membrane disintegration, or the presence of cell fragments, indicating the absence of necrotic processes. […] Green arrows indicate normal morphologies, such as cytoplasmic elongations and polygonal shapes. Red arrows indicate morphological changes induced by the peptides, including cell rounding, shrinkage, and loss of cytoplasmic projections. Scale bar: µm. The control corresponds to untreated cells.

Minimal inhibitory concentration (MIC) [1]: 52 µM
Minimal inhibitory concentration (MIC) [2]: > 105 µM
Minimal inhibitory concentration (MIC) [3]: 26 µM
Compound: CCN(CC)c1ccc2c(-c3ccccc3C(=O)N[C@@H](CCCNC(=N)N)C(=O)N[C@@H](Cc3c[nH]c4ccccc34)C(=O)N[C@@H](CCC(N)=O)C(=O)N[C@@H](Cc3c[nH]c4ccccc34)C(=O)N[C@@H](CCCNC(=N)N)C(=O)N[C@@H](Cc3c[nH]c4ccccc34)C(=O)N[C@@H](CCC(N)=O)C(=O)N[C@@H](Cc3c[nH]c4ccccc34)C(=O)N[C@@H](CCCNC(=N)N)C(N)=O)c3ccc(=[N+](CC)CC)cc-3oc2c1 [RhB-1, RhB-RWQWRWQWR] (RhodamineB-RWQWRWQWR-NH2)
Minimal bactericidal concentration (MBC) [1]: 105 µM
Minimal bactericidal concentration (MBC) [2]: > 105 µM
Minimal bactericidal concentration (MBC) [3]: 105 µM
IC50 [4]: 117 µg/mL and 61 µM
cell population remaining (MCF-7 cells): 8%
selectivity ratio (Hemolysis assay): 0.2
hemolysis (Hemolysis assay; Percentage of hemolysis): 19%
Therapeutic index (erythrocytes): 0.5
morphological changes (HeLa cells): appeared smaller, rounded, and contained vacuoles
